Experimental data as given in publication PMC9814838, “The orphan nuclear receptor Nurr1 is responsive to non-steroidal anti-inflammatory drugs” (Communications Chemistry, 2020).
Entries after “also recorded” stand apart in the source; their conditions may differ.

T1: NOR1 (Homo sapiens, UniProt Q92570)
T1 construct: NOR1 (isoform alpha; uniprot entry: hNOR1–Q92570-1, residues 393–626); expressed in transfected cells; host or cells: HEK293T
T1 sequence (Q92570 393-626): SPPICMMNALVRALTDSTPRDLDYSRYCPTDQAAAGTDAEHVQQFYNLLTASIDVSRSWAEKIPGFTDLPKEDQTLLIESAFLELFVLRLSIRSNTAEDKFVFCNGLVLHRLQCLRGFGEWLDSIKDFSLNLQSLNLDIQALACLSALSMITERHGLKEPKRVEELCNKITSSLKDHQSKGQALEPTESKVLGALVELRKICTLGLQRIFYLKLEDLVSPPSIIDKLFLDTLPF

T2: RXRα (Homo sapiens, UniProt P19793)
T2 construct: expressed in transfected cells; host or cells: HEK293T
T2 sequence (P19793 227-458 limits assumed): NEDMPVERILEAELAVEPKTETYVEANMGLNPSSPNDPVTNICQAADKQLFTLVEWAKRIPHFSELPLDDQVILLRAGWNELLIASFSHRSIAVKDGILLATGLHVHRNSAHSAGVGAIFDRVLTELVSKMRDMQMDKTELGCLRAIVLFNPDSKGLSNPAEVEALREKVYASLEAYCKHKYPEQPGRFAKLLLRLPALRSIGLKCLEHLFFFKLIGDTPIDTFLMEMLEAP

T3: GFP-RXRα LBD (human, UniProt P19793-1 226-462)
T3 construct: Superfolder GFP is the FRET acceptor; a BamHI site lies between GFP and the LBD; also called GFP-labeled RXRα LBD; source: E. coli T7 express with pGro7, purified (IMAC, TEV cleavage, reverse IMAC, SEC); not shown: His10, N-terminal, cleaved; superfolder GFP, N-terminal, kept
T3 sequence (looked up): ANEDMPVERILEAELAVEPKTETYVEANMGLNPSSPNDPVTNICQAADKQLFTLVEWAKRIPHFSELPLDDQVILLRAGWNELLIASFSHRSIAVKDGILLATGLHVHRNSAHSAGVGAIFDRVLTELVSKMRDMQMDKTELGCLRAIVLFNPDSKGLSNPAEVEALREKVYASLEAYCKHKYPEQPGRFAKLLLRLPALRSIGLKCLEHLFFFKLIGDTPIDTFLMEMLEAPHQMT

B1: biotinylated recombinant Nurr1 LBD (Tb-labeled through Tb-cryptate streptavidin) (domain or fragment, human, UniProt P43354-1 364-598, looked up)
chain: LISALVRAHVDSNPAMTSLDYSRFQANPDYQMSGDDTQHIQQFYDLLTGSMEIIRGWAEKIPGFADLPKADQDLLFESAFLELFVLRLAYRSNPVEGKLIFCNGVVLHRLQCVRGFGEWIDSIVEFSSNLQNMNIDISAFSCIAALAMVTERHGLKEPKRVEELQNKIVNCLKDHVTFNNGGLNRPNYLSKLLGKLPELRTLCTQGLQRIFYLKLEDLVPPPAIIDKLFLDTLPF
modifications: biotin on the lysine residue in the Avi-Tag
notes: In the assays coupled to terbium cryptate streptavidin conjugate (Tb-SA) as FRET donor; also called Tb-labeled Nurr1 LBD; Tb-cryptate-labeled Nurr1 LBD; source: E. coli T7 express with pGro7, purified (IMAC, TEV cleavage, amylose resin, birA biotinylation, monomeric avidin, SEC); not shown: MBP, N-terminal, cleaved; His8, N-terminal, cleaved; Avi-Tag, N-terminal, kept

Assays:
[1] = molecular target: T4, DR5: Nurr1–RXRα heterodimer (Homo sapiens, UniProt P43354); assay: Full-length Nurr1 reporter gene assay on DR5 response element; type: cell-based; conditions: full-length human Nurr1 and RXRα overexpressed; HEK293T; mean ± SD
T4 construct: the activity of full-length human Nurr1 in cellular settings; host or cells: HEK293T

Nurr1 LBD homodimer = molecular target: T5, Nurr1 LBD homodimer (Homo sapiens, UniProt P43354); assay: Nurr1 homodimerization HTRF (GFP-Nurr1 LBD vs Tb-labeled Nurr1 LBD); type: biochemical; conditions: cell-free; ligand 100 µM
T5 construct: Nurr1 (uniprot entry: P43354-1, residues 364–598); MBP-Asn10 linker (N, cleaved yes); His8-Tag (N, cleaved yes); His10-Tag (N, cleaved yes); made in house; host or cells: E. coli T7 express (with pGro7)
Protocol: Strength and modulation of the formation of the heterodimer composed of the LBDs of Nurr1 and RXRα was investigated by titration of GFP-RXRα LBD against a fixed concentration of Nurr1 LBD. Assay solutions were prepared in HTRF assay buffer supplemented with 0.1% (w/v) CHAPS as well as 1% DMSO with test compounds at 100 µM or DMSO alone as negative control. […] Free GFP was added to keep the total GFP content stable at 4 µM throughout the entire series in order to suppress artefacts from changes in degree of diffusion enhanced FRET. Samples were equilibrated at RT for 2 h before FI520 and FI620 were recorded after excitation at 340 nm, and the HTRF signal was calculated as described above.

Nurr1–NCoR-1 interaction = molecular target: T6, Nurr1–NCoR-1 interaction (Homo sapiens, UniProt P43354); assay: Nurr1–NCoR-1 interaction HTRF (GFP-Nurr1 LBD titrated against Tb-labeled NCoR-1); type: biochemical; conditions: cell-free; ligand fixed at 100 µM
T6 construct: Nurr1 (uniprot entry: P43354-1, residues 364–598); His10-Tag (N, cleaved yes); made in house; host or cells: E. coli T7 express (with pGro7)
Protocol: Since ligand concentration was fixed in this setting, interference with the HTRF system is less prone to generate potential artifacts.
To maintain a constant GFP concentration, free GFP protein was added to the dilution series. The experiments were performed in HTRF assay buffer (150 mM KF, 25 mM HEPES pH 7.5 (KOH), 5% (w/v) Glycerol, supplemented with 0.1% (w/v) CHAPS and 5 mM DTT) with 1% DMSO in an assay volume of 20 µl. After 1 h incubation at RT, fluorescence intensities after excitation at 340 nm were recorded at 520 nm for GFP acceptor fluorescence and 620 nm for Tb-SA donor fluorescence and the HTRF signal was calculated as described above.

Nurr1 [2] = system: Nurr1; design: method as in PMID 26124091; conditions: cited from earlier work
NBRE: Nurr1 monomer = molecular target: T7, NBRE: Nurr1 monomer (Homo sapiens, UniProt P43354); assay: Full-length Nurr1 reporter gene assay on NBRE response element; type: cell-based; conditions: full-length human Nurr1; HEK293T; mean ± SD
T7 construct: the activity of full-length human Nurr1 in cellular settings; host or cells: HEK293T

NurRE: Nurr1 homodimer = molecular target: T8, NurRE: Nurr1 homodimer (Homo sapiens, UniProt P43354); assay: Full-length Nurr1 reporter gene assay on NurRE response element; type: cell-based; conditions: full-length human Nurr1; HEK293T; mean ± SD
T8 construct: the activity of full-length human Nurr1 in cellular settings; host or cells: HEK293T

Nurr1 [3] = molecular target: T9, Nurr1 (Homo sapiens, UniProt P43354); assay: Gal4-Nurr1 hybrid reporter gene assay in HEK293T cells; type: cell-based; conditions: for EC50: HEK293T, n≥3; for Nurr1 activity 10μM (mean fold activation) / Nurr1 activity 30μM (mean fold activation): primary screen, n ≥ 2, ^# not significant vs VP16 control
T9 construct: Nurr1 (uniprot entry: hNURR1–P43354, residues 360–598); expressed in transfected cells; host or cells: HEK293T

NOR1 = molecular target: T1, NOR1; assay: Gal4-NOR1 hybrid reporter gene assay in HEK293T cells; type: cell-based; conditions: for Nor1 activity 10μM (mean fold activation) / Nor1 activity 30μM (mean fold activation): primary screen, n ≥ 2, ^# not significant vs VP16 control
PPAR; RXRα; RARα = assay: Selectivity profiling in Gal4 hybrid reporter gene assays outside the NR4A family; type: cell-based, human; conditions: rel. activation vs reference agonists at 1 µM; n ≥ 4
firefly luciferase = firefly luciferase (Photinus pyralis, UniProt P08659); assay: Firefly luciferase inhibition; conditions: compounds marked with * in Fig. 2a
Nur77 = molecular target: T10, Nur77 (Homo sapiens, UniProt P22736); assay: Gal4-Nur77 hybrid reporter gene assay in HEK293T cells; type: cell-based; conditions: primary screen, n ≥ 2, ^# not significant vs VP16 control
T10 construct: Nur77 (uniprot entry: hNUR77–P22736, residues 358–598); expressed in transfected cells; host or cells: HEK293T

RXRα = molecular target: T2, RXRα; assay: Gal4-RXRα hybrid reporter gene assay (selectivity); type: cell-based; conditions: selectivity profiling; also described previously
Gal4-VP16 = molecular target: T11, Gal4-VP16 (Human herpesvirus 1, UniProt P06492); type: cell-based; conditions: n ≥ 4
T11 construct: host or cells: HEK293T

[4] = molecular target: B1; assay: AlphaScreen or HTRF; Nurr1 homodimerization: GFP-Nurr1 LBD titrated from 500 nM against biotinylated Nurr1 LBD 0.375 nM on Tb-SA 0.75 nM; free GFP added to keep total GFP at 500 nM; HTRF assay buffer with 0.1% CHAPS; 1% DMSO alone or with AQ, CQ, parecoxib or oxaprozin at 100 µM; 2 h at RT; conditions: both partners purified
GFP-RXRα LBD = molecular target: T3, GFP-RXRα LBD; assay: AlphaScreen or HTRF; Nurr1-RXR heterodimerization: GFP-RXRα LBD titrated from 4 µM (dilution factor 0.7) against biotinylated Nurr1 LBD 0.375 nM on Tb-SA 0.75 nM; free GFP added to keep total GFP at 4 µM; HTRF assay buffer with 0.1% CHAPS; 1% DMSO alone or with AQ, CQ, MFA, parecoxib or oxaprozin at 100 µM; 2 h at RT; conditions: both partners purified

T9 sequence (P43354 360-598): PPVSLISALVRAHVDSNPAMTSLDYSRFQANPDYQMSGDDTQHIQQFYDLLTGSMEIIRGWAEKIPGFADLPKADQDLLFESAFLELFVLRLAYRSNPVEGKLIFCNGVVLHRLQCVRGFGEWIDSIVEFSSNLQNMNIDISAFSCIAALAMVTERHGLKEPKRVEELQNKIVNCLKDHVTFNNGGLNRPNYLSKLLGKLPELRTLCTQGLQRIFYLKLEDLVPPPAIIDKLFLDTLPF
T10 sequence (P22736 358-598): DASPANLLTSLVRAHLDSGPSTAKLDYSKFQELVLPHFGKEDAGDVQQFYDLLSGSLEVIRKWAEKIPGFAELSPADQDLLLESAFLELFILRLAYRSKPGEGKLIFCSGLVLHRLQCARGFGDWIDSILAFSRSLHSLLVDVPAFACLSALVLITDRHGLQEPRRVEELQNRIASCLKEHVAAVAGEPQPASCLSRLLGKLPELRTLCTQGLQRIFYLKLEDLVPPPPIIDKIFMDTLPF
Sequence of firefly luciferase (P08659 whole entry, the tested form may be a part): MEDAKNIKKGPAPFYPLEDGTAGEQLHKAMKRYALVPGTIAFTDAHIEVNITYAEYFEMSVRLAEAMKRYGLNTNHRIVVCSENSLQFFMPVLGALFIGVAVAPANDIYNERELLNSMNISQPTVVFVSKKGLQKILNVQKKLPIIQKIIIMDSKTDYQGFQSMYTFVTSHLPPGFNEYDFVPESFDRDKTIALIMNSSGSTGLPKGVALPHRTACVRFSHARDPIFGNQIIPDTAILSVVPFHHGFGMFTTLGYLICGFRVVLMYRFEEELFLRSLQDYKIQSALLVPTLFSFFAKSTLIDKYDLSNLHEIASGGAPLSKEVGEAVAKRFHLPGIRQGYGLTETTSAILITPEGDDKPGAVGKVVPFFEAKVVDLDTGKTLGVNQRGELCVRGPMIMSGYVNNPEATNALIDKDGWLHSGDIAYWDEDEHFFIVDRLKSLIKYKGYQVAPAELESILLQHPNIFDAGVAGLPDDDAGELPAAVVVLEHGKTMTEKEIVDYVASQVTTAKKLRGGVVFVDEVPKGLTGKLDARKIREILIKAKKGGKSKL
T4 sequence (P43354 whole entry, one chain of several): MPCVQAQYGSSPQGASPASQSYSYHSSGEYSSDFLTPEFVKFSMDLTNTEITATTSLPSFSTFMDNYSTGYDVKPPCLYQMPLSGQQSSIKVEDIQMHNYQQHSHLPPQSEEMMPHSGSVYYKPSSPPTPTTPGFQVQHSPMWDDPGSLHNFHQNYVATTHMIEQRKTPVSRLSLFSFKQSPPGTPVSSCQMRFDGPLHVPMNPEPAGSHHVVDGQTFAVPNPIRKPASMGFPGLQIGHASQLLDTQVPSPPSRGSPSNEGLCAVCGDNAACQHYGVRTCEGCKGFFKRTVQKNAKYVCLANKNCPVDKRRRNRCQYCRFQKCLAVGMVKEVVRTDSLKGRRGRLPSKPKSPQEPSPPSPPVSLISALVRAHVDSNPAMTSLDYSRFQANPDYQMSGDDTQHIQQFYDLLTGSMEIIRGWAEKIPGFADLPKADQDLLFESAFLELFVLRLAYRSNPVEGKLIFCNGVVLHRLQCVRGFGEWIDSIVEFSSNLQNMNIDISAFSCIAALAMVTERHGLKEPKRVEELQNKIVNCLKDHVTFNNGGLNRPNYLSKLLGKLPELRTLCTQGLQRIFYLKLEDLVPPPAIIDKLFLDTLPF
T8 sequence (P43354 whole entry): as the sequence (P43354 whole entry, one chain of several) above
T7 sequence (P43354 whole entry): as the sequence (P43354 whole entry, one chain of several) above

Molecule	EC50 (Nurr1 [3]; mean ± SD)	Nor1 activity 10μM (mean fold activation) (NOR1)	Nor1 activity 30μM (mean fold activation) (NOR1)	Inhibition of firefly luciferase (firefly luciferase)	Nur77 activity 10μM (mean fold activation) (Nur77)	Nur77 activity 30μM (mean fold activation) (Nur77)	Nurr1 activity 10μM (mean fold activation) (Nurr1 [3])	Nurr1 activity 30μM (mean fold activation) (Nurr1 [3])	further results
CCN(CC)Cc1cc(Nc2ccnc3cc(Cl)ccc23)ccc1O [AQ, amodiaquine]	36 µM	–	–	–	–	–	–	–	EC50 [1]: 97 µM; Homodimerization (effect of ligand) (Nurr1 LBD homodimer): promoted homodimerization; also recorded: Promotes dimerization; NCoR-1 affinity (effect of ligand) (Nurr1–NCoR-1 interaction): promoted the Nurr1–NCoR-1 interaction; also recorded: Enhances affinity; Nurr1 activation efficacy (Nurr1 [2]): ~ 3 fold; EC50 (NBRE: Nurr1 monomer): 92 µM; EC50 (NurRE: Nurr1 homodimer): 87 µM
O=C(O)COC(=O)Cc1ccccc1Nc1c(Cl)cccc1Cl [aceclofenac]	2.5 ± 0.1 µM	0.94 fold	0.49 fold	inhibit firefly luciferase	0.84 fold	0.60 fold	0.85 fold	0.46 fold	Selectivity over PPAR, RXRα, RARα (PPAR; RXRα; RARα): confirmed selectivity; Gal4-Nurr1 maximum/minimum activation (Nurr1 [3]; vs 0.1% DMSO, mean ± SD): 1.99 ± 0.07 fold
Cc1ccc(Nc2c(F)cccc2Cl)c(CC(=O)O)c1 [lumiracoxib]	–	0.86 fold	0.79 fold	inhibit firefly luciferase	0.76 fold	0.66 fold	0.90 fold	0.76 fold	–
O=C(O)CCc1nc(-c2ccccc2)c(-c2ccccc2)o1 [oxaprozin]	–	–	–	–	–	–	–	–	RXR agonism (RXRα): weak RXR agonism; NOR1 min./max. activation (NOR1; compared to 0.1% DMSO, mean ± SD): ≥ 0.00; Control experiments on Gal4-VP16 (non-specific reporter effects) (Gal4-VP16): no non-specific reporter suppression
GFP-Nurr1 LBD (domain or fragment, human, UniProt P43354-1 364-598, looked up, Superfolder GFP is the FRET acceptor; a BamHI site lies between GFP and the LBD; also called GFP-labeled Nurr1 LBD; source: E. coli T7 express with pGro7, purified (IMAC, TEV cleavage, reverse IMAC, SEC); not shown: His10, N-terminal, cleaved; superfolder GFP, N-terminal, kept) LISALVRAHVDSNPAMTSLDYSRFQANPDYQMSGDDTQHIQQFYDLLTGSMEIIRGWAEKIPGFADLPKADQDLLFESAFLELFVLRLAYRSNPVEGKLIFCNGVVLHRLQCVRGFGEWIDSIVEFSSNLQNMNIDISAFSCIAALAMVTERHGLKEPKRVEELQNKIVNCLKDHVTFNNGGLNRPNYLSKLLGKLPELRTLCTQGLQRIFYLKLEDLVPPPAIIDKLFLDTLPF	–	–	–	–	–	–	–	–	binding result [4]: binds
B1	–	–	–	–	–	–	–	–	binding result (GFP-RXRα LBD): binds
